Converted amounts (≈) assume the structure as drawn.
Key:
[1] = molecular target: T1, Lanosterol 14-alpha demethylase (Candida albicans (strain SC5314 / ATCC MYA-2876) (Yeast), UniProt P10613); test: Inhibition of Candida albicans CYP51 assessed as lanosterol level at 0.015 ug/ml measured after 18 hrs by GC-MS analysis relative to control; design: scale not given: the % may be the effect or the level left; conditions: at 0.015 µg/mL
Candida tropicalis = test: Antifungal activity against Candida tropicalis GIM2.183 assessed as inhibition of fungal growth by NCCLS protocol based method; assay type: functional
Candida albicans [2] = test: Antifungal activity against Candida albicans SC5314 assessed as inhibition of fungal growth by NCCLS protocol based method; assay type: functional
Aspergillus fumigatus = test: Antifungal activity against Aspergillus fumigatus CGMCC3.7795 assessed as inhibition of fungal growth by NCCLS protocol based method; assay type: functional
Candida albicans [3] = test: Antifungal activity against Candida albicans GIM2.194 assessed as inhibition of fungal growth by NCCLS protocol based method; assay type: functional
Pichia kudriavzevii = test: Antifungal activity against Candida krusei GIM2.1 assessed as inhibition of fungal growth by NCCLS protocol based method; assay type: functional
Candida parapsilosis = test: Antifungal activity against Candida parapsilosis GIM2.190 assessed as inhibition of fungal growth by NCCLS protocol based method; assay type: functional; conditions: Lodderomyces parapsilosis
Candida albicans [4] = test: Antifungal activity against fluconazole resistant Candida albicans CaR assessed as inhibition of fungal growth by NCCLS protocol based method; assay type: functional
Candida albicans [5] = test: Antifungal activity against fluconazole and itraconazole resistant Candida albicans 17# assessed as inhibition of fungal growth by NCCLS protocol based method; assay type: functional
[6] = Metabolic stability in human liver microsomes assessed as half life at 100 uM in the presence of NADPH measured upto 60 mins by LC-MS/MS analysis; assay type: ADME, Microsome
[7] = Intrinsic microsomal clearance in human liver microsomes at 100 uM in the presence of NADPH measured up to 60 mins by LC-MS/MS analysis; assay type: ADME, Microsome; conditions: read-out: CLH
[8] = Metabolic stability in human liver microsomes assessed as compound remaining at 100 uM measured after 60 mins in the presence of NADPH by LC-MS/MS analysis; assay type: ADME, Microsome; conditions: read-out: Stabilty
[9] = Metabolic stability in human liver microsomes assessed as compound remaining at 100 uM measured after 60 mins in the absence of NADPH by LC-MS/MS analysis; assay type: ADME, Microsome; conditions: read-out: Stabilty
[10] = Metabolic stability in human plasma assessed as parent compound remaining at 100 uM measured after 60 mins by LC-MS/MS analysis; assay type: ADME, cell-free; conditions: read-out: Stabilty
[11] = Metabolic stability in human plasma assessed as parent compound remaining at 100 uM measured after 120 mins by LC-MS/MS analysis; assay type: ADME, cell-free; conditions: 2 h
[12] = Metabolic stability in human plasma assessed as half life at 100 uM measured after 60 mins by LC-MS/MS analysis; assay type: ADME, cell-free
Cytochrome P450 1A2 = molecular target: T2, Cytochrome P450 1A2 (Homo sapiens, UniProt P05177); test: Inhibition of CYP1A2 in human liver microsome incubated for 10 mins in the presence of NADPH by LC-MS/MS analysis; assay type: ADME, microsomes
T2 sequence (P05177 whole entry): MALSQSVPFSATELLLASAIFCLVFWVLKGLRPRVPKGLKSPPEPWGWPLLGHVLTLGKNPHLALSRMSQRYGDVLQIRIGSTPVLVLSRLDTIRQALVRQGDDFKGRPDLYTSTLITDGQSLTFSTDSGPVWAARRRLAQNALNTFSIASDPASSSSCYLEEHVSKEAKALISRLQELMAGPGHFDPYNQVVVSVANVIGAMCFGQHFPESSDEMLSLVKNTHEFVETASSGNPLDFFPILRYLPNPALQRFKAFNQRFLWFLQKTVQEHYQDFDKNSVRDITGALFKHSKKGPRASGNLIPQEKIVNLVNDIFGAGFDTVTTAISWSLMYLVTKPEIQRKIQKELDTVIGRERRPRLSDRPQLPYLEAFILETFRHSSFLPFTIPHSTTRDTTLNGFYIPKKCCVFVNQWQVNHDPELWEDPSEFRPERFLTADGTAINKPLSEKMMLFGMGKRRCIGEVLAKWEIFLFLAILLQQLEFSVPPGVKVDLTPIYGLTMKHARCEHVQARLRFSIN

Cytochrome P450 2C9 = Cytochrome P450 2C9 (Homo sapiens, UniProt P11712); test: Inhibition of CYP2C9 in human liver microsome incubated for 10 mins in the presence of NADPH by LC-MS/MS analysis; assay type: ADME, microsomes
Cytochrome P450 2C19 = Cytochrome P450 2C19 (Homo sapiens, UniProt P33261); test: Inhibition of CYP2C19 in human liver microsome incubated for 10 mins in the presence of NADPH by LC-MS/MS analysis; assay type: ADME, microsomes
Cytochrome P450 2D6 = Cytochrome P450 2D6 (Homo sapiens, UniProt P10635); test: Inhibition of CYP2D6 in human liver microsome incubated for 10 mins in the presence of NADPH by LC-MS/MS analysis; assay type: ADME, microsomes
Cytochrome P450 3A4 = Cytochrome P450 3A4 (Homo sapiens, UniProt P08684); test: Inhibition of CYP3A4 in human liver microsome incubated for 10 mins in the presence of NADPH by LC-MS/MS analysis; assay type: ADME, microsomes
[13] = Initial plasma concentration in Sprague-Dawley rat at 2 mg/kg, iv by LC-MS/MS analysis; assay type: ADME, organism-based
[14] = Half life in Sprague-Dawley rat at 2 mg/kg, iv measured up to 24 hrs by LC-MS/MS analysis; assay type: ADME, organism-based; conditions: in vivo
[15] = Volume of distribution at steady state in Sprague-Dawley rat at 2 mg/kg, iv measured after 24 hrs by LC-MS/MS analysis; assay type: ADME, organism-based; conditions: in vivo, read-out: Vdss
[16] = Clearance in Sprague-Dawley rat at 2 mg/kg, iv measured after 24 hrs by LC-MS/MS analysis; assay type: ADME, organism-based; conditions: in vivo
[17] = AUClast in Sprague-Dawley rat at 2 mg/kg, iv measured after 24 hrs by LC-MS/MS analysis; assay type: ADME, organism-based; design: route intravenous, dose 2 mg/kg, time 24 hrs; conditions: in vivo
[18] = AUC (0-infinity) in Sprague-Dawley rat at 2 mg/kg, iv measured after 24 hrs by LC-MS/MS analysis; assay type: ADME, organism-based; design: route intravenous, dose 2 mg/kg, time 24 hrs; conditions: in vivo
[19] = Cmax in Sprague-Dawley rat at 10 mg/kg, po measured up to 24 hrs by LC-MS/MS analysis; assay type: ADME, organism-based; design: route oral, dose 10 mg/kg, time <=24; conditions: in vivo
[20] = Tmax in Sprague-Dawley rat at 10 mg/kg, po measured up to 24 hrs by LC-MS/MS analysis; assay type: ADME, organism-based; conditions: in vivo
[21] = AUClast in Sprague-Dawley rat at 10 mg/kg, po measured after 24 hrs by LC-MS/MS analysis; assay type: ADME, organism-based; design: route oral, time 24 hrs, dose 10 mg/kg; conditions: in vivo
[22] = Oral bioavailability in Sprague-Dawley rat at 10 mg/kg measured after 24 hrs by LC-MS/MS analysis; assay type: ADME, organism-based; conditions: in vivo
[23] = molecular target: T1, Lanosterol 14-alpha demethylase; test: Inhibition of Candida albicans CYP51 assessed as ergosterol level at 0.015 ug/ml measured after 18 hrs by GC-MS analysis relative to control; design: scale not given: the % may be the effect or the level left; conditions: at 0.015 µg/mL
[24] = molecular target: T1, Lanosterol 14-alpha demethylase; test: Inhibition of Candida albicans CYP51 assessed as eburicol level at 0.015 ug/ml measured after 18 hrs by GC-MS analysis relative to control; design: scale not given: the % may be the effect or the level left; conditions: at 0.015 µg/mL
[25] = molecular target: T1, Lanosterol 14-alpha demethylase; test: Inhibition of Candida albicans CYP51 assessed as 14alpha-methylergosta-8,24(28)-dien3beta-6alpha-diol level at 0.015 ug/ml measured after 18 hrs by GC-MS analysis relative to control; design: scale not given: the % may be the effect or the level left; conditions: at 0.015 µg/mL
[26] = molecular target: T1, Lanosterol 14-alpha demethylase; test: Inhibition of Candida albicans CYP51 assessed as unknown sterol level at 0.015 ug/ml measured after 18 hrs by GC-MS analysis relative to control; design: scale not given: the % may be the effect or the level left; conditions: at 0.015 µg/mL
Cryptococcus neoformans [27] = test: Antifungal activity against Cryptococcus neoformans GIM2.209 assessed as inhibition of fungal growth by NCCLS protocol based method; assay type: functional
Candida albicans [28] = test: Antifungal activity against Candida albicans CPCC400523 assessed as inhibition of fungal growth by NCCLS protocol based method; assay type: functional
Cryptococcus neoformans [29] = test: Antifungal activity against Cryptococcus neoformans CGMCC2.3161 assessed as inhibition of fungal growth by NCCLS protocol based method; assay type: functional
[30] = molecular target: T1, Lanosterol 14-alpha demethylase; test: Inhibition of Candida albicans CYP51 assessed as lanosterol level at 0.25 ug/ml measured after 18 hrs by GC-MS analysis relative to control; design: scale not given: the % may be the effect or the level left; conditions: at 0.25 µg/mL
[31] = molecular target: T1, Lanosterol 14-alpha demethylase; test: Inhibition of Candida albicans CYP51 assessed as ergosterol level at 0.25 ug/ml measured after 18 hrs by GC-MS analysis relative to control; design: scale not given: the % may be the effect or the level left; conditions: at 0.25 µg/mL
[32] = molecular target: T1, Lanosterol 14-alpha demethylase; test: Inhibition of Candida albicans CYP51 assessed as eburicol level at 0.25 ug/ml measured after 18 hrs by GC-MS analysis relative to control; design: scale not given: the % may be the effect or the level left; conditions: at 0.25 µg/mL
[33] = molecular target: T1, Lanosterol 14-alpha demethylase; test: Inhibition of Candida albicans CYP51 assessed as 14alpha-methylergosta-8,24(28)-dien3beta-6alpha-diol level at 0.25 ug/ml measured after 18 hrs by GC-MS analysis relative to control; design: scale not given: the % may be the effect or the level left; conditions: at 0.25 µg/mL
[34] = molecular target: T1, Lanosterol 14-alpha demethylase; test: Inhibition of Candida albicans CYP51 assessed as unknown sterol level at 0.25 ug/ml measured after 18 hrs by GC-MS analysis relative to control; design: scale not given: the % may be the effect or the level left; conditions: at 0.25 µg/mL

T1 sequence (P10613 whole entry): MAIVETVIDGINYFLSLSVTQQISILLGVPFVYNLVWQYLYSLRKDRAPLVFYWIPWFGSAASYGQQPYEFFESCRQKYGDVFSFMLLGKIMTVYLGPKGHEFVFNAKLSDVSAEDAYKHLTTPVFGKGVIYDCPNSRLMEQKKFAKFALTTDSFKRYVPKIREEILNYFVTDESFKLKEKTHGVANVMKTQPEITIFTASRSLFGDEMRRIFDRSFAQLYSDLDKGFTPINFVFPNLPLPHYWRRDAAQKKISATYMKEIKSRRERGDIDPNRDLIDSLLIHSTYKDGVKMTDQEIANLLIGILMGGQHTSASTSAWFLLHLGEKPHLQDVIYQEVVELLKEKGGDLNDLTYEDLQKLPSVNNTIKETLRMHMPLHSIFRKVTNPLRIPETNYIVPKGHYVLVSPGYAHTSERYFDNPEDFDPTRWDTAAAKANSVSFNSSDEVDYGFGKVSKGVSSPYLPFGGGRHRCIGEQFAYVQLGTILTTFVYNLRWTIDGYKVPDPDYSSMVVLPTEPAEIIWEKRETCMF
Chain of Cytochrome P450 3A4 (P08684 whole entry): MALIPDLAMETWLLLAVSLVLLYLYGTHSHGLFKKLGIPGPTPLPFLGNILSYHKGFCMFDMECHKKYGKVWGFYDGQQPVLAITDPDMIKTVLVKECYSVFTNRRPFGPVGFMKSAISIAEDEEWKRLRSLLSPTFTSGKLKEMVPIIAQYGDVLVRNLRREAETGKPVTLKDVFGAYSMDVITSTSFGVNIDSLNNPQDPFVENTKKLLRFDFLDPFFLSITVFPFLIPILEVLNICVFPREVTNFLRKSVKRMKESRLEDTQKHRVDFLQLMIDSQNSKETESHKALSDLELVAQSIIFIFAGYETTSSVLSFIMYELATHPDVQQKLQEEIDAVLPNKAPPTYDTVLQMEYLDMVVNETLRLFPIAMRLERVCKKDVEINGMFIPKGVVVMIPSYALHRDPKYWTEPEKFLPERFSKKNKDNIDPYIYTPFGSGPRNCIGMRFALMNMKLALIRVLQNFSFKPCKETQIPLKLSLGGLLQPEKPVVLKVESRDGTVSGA
Chain of Cytochrome P450 2D6 (P10635 whole entry): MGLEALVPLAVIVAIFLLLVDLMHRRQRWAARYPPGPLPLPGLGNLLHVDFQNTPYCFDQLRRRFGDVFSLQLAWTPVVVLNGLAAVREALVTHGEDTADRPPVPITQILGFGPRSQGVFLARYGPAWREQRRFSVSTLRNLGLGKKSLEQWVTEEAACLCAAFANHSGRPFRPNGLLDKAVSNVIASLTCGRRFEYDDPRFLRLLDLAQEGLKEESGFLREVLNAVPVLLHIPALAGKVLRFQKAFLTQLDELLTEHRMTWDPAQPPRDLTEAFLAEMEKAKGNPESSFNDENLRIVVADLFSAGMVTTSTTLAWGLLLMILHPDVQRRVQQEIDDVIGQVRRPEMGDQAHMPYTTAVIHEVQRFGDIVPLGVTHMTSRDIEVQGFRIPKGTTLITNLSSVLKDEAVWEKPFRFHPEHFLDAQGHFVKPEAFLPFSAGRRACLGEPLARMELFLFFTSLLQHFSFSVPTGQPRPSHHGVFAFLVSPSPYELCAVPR
Chain of Cytochrome P450 2C19 (P33261 whole entry): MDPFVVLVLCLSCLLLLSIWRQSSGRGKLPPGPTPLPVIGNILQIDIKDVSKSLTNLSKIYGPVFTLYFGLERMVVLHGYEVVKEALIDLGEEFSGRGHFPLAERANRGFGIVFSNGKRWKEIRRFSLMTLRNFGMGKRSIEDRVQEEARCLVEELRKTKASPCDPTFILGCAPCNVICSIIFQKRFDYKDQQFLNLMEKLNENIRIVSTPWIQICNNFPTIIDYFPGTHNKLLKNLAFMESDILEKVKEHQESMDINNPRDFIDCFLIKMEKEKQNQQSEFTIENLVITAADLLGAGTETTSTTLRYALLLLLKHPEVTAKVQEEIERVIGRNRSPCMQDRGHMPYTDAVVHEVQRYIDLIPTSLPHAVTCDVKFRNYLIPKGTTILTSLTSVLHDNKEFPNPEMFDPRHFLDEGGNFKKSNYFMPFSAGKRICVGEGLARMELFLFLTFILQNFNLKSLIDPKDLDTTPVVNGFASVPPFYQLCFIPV
Chain of Cytochrome P450 2C9 (P11712 whole entry): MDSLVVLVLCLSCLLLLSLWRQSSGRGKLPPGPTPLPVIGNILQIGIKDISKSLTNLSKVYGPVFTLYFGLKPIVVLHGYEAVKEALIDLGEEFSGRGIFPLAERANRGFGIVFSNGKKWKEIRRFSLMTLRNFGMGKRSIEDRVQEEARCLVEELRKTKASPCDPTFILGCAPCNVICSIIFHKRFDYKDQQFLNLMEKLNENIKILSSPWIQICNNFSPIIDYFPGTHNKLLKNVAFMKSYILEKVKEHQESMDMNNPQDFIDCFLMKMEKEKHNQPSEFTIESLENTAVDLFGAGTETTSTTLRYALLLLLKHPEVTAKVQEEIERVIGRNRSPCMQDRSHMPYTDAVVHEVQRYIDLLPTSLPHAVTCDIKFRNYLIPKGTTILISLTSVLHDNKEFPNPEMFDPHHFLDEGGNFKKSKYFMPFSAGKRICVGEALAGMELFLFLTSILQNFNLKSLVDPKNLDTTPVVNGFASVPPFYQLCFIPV

## Fc1ccc(C2(Cn3cncn3)COC(c3ccc(-c4ccccc4F)cc3)=N2)cc1 (stereo unspecified)
[1]
  Activity: 18.89%
Candida tropicalis
  MIC: 0.06 µg/mL (≈ 0.144 µM)
Candida albicans [2]
  MIC: < 0.03 µg/mL
Aspergillus fumigatus
  MIC: > 64 µg/mL
Candida albicans [3]
  MIC: < 0.03 µg/mL
Pichia kudriavzevii
  MIC: 0.25 µg/mL (≈ 0.6 µM)
Candida parapsilosis
  MIC: 8 µg/mL (≈ 19.2 µM)
Candida albicans [4]
  MIC: 0.25 µg/mL (≈ 0.6 µM)
Candida albicans [5]
  MIC: > 64 µg/mL
[6]
  half-life at 100 µM: > 2.42 h
[7]
  microsomal CLint at 100 µM: < 9.6 µL/min/mg
[8]
  remaining at 1 h, 100 µM: 75.4%
[9]
  remaining at 1 h, 100 µM: 89.6%
[10]
  remaining at 1 h, 100 µM: 95.3%
[11]
  Stabilty: 120.4%
[12]
  half-life at 100 µM: > 4.8 h
Cytochrome P450 1A2
  IC50: 6.64 µM
Cytochrome P450 2C9
  IC50: 2.3 µM
Cytochrome P450 2C19
  IC50: 1.56 µM
Cytochrome P450 2D6
  IC50: > 50 µM
Cytochrome P450 3A4
  IC50: 14.8 µM
[13]
  C0: 758 ng/mL
[14]
  half-life: 9.35 h
[15]
  Vd: 7.18 L/kg
[16]
  clearance: 10.8 mL/min/kg
[17]
  AUC(0-t) at 24 h: 2690 ng·h/mL
[18]
  AUC(0-inf): 3130 ng·h/mL
[19]
  Cmax: 754 ng/mL
[20]
  Tmax: 5.33 h
[21]
  AUC(0-t) at 24 h: 10400 ng·h/mL
[22]
  bioavailability: 77.7%
[23]
  Activity: 38.82%
[24]
  Activity: 5.08%
[25]
  Activity: 32.74%
[26]
  Activity: 1.97%

## OC(Cn1cncn1)(Cn1cncn1)c1ccc(F)cc1F [FLUCONAZOLE]
Candida tropicalis
  MIC: 1 µg/mL (≈ 3.27 µM)
Cryptococcus neoformans [27]
  MIC: 4 µg/mL (≈ 13.1 µM)
Candida albicans [2]
  MIC: 0.5 µg/mL (≈ 1.63 µM)
Candida albicans [28]
  MIC: 1 µg/mL (≈ 3.27 µM)
Cryptococcus neoformans [29]
  MIC: 4 µg/mL (≈ 13.1 µM)
Aspergillus fumigatus
  MIC: > 64 µg/mL
Candida albicans [3]
  MIC: 1 µg/mL (≈ 3.27 µM)
Pichia kudriavzevii
  MIC: 8 µg/mL (≈ 26.1 µM)
Candida parapsilosis
  MIC: 2 µg/mL (≈ 6.53 µM)
Candida albicans [4]
  MIC: > 64 µg/mL
Candida albicans [5]
  MIC: > 64 µg/mL
[30]
  Activity: 15.13%
[31]
  Activity: 34.27%
[32]
  Activity: 7.57%
[33]
  Activity: 30.66%
[34]
  Activity: 1.91%
